Source: PubChem BioAssay AID330 (DTP/NCI, 2004)
Where “and” joins values, the source holds several entries; their conditions need not be identical. Identical values can stand only once. Inconclusive results and toxic doses are left out.

System: P388 leukemia ip, CD2F1 mice, survival T/C
Experiment: NCI In Vivo Anticancer Drug Screen. Data for tumor model P388 Leukemia (intraperitoneal) in CD2F1 (CDF1) mice
Conditions: endpoint: median survival time, higher = longer survival
Summary of the method: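 Mice carrying the transplanted tumor received test compound or vehicle. Survival was recorded in each group, and the value is the treated-group measurement divided by that of the vehicle-treated control group.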

[1] = dose: 50.0 mg/kg/injection, schedule: Q01DX005 (ip), vehicle: Klucel (hydroxypropylcellulose) (HPC)
[2] = dose: 100.0 mg/kg/injection, schedule: Q01DX005 (ip), vehicle: Klucel (hydroxypropylcellulose) (HPC)
[3] = dose: 200.0 mg/kg/injection, schedule: Q01DX005 (ip), vehicle: Klucel (hydroxypropylcellulose) (HPC)
[4] = dose: 50.0 mg/kg/injection, schedule: Q01DX009 (ip), vehicle: Klucel (hydroxypropylcellulose) (HPC)
[5] = dose: 100.0 mg/kg/injection, schedule: Q01DX009 (ip), vehicle: Klucel (hydroxypropylcellulose) (HPC)
[6] = dose: 200.0 mg/kg/injection, schedule: Q01DX009 (ip), vehicle: Klucel (hydroxypropylcellulose) (HPC)
[7] = dose: 50.0 mg/kg/injection, schedule: Q01DX009 (ip), vehicle: saline with Tween-80
[8] = dose: 100.0 mg/kg/injection, schedule: Q01DX009 (ip), vehicle: saline with Tween-80
[9] = dose: 200.0 mg/kg/injection, schedule: Q01DX009 (ip), vehicle: saline with Tween-80
[10] = dose: 50.0 mg/kg/injection, schedule: Q01DX005 (ip), vehicle: saline with Tween-80
[11] = dose: 100.0 mg/kg/injection, schedule: Q01DX005 (ip), vehicle: saline with Tween-80
[12] = dose: 200.0 mg/kg/injection, schedule: Q01DX005 (ip), vehicle: saline with Tween-80
[13] = dose: 25.0 mg/kg/injection, schedule: Q01DX005 (ip), vehicle: Klucel (hydroxypropylcellulose) (HPC)
[14] = dose: 12.5 mg/kg/injection, schedule: Q01DX005 (ip), vehicle: Klucel (hydroxypropylcellulose) (HPC)
[15] = dose: 200.0 mg/kg/injection, schedule: Q04DX003 (ip), vehicle: saline
[16] = dose: 400.0 mg/kg/injection, schedule: Q04DX003 (ip), vehicle: saline
[17] = dose: 100.0 mg/kg/injection, schedule: Q04DX002 (ip), vehicle: saline with Tween-80
[18] = dose: 200.0 mg/kg/injection, schedule: Q04DX002 (ip), vehicle: saline with Tween-80
[19] = dose: 400.0 mg/kg/injection, schedule: Q04DX002 (ip), vehicle: saline with Tween-80
[20] = dose: 60.0 mg/kg/injection, schedule: Q01DX005 (ip), vehicle: saline with Tween-80
[21] = dose: 120.0 mg/kg/injection, schedule: Q01DX005 (ip), vehicle: saline with Tween-80
[22] = dose: 240.0 mg/kg/injection, schedule: Q01DX005 (ip), vehicle: saline with Tween-80

O=c1c2ccccc2c(=O)c2c1cc(Cl)c1[nH]c3c([nH]c12)c(Cl)cc1c(=O)c2ccccc2c(=O)c13
T/C [1]: 97 % of control
T/C [2]: 96 % of control
T/C [3]: 94 % of control

CC1(C)OCC(C2OC(C)(C)OC2/C=C2/CC(=O)NC2=O)O1 (stereo not drawn)
T/C [4]: 100 % of control and 107 % of control
T/C [5]: 100 % of control and 120 % of control
T/C [6]: 102 % of control and 122 % of control
T/C (dose: 400.0 mg/kg/injection, schedule: Q01DX009 (ip), vehicle: Klucel (hydroxypropylcellulose) (HPC)): 116 % of control

CSCc1cc(Cl)cc2c1OCOC2
T/C [7]: 102 % of control
T/C [8]: 96 % of control
T/C [9]: 100 % of control

O=C(NCCCl)NCCCl
T/C (dose: 10.0 mg/kg/injection, schedule: Q01DX009 (ip), vehicle: saline): 105 % of control and 108 % of control
T/C (dose: 20.0 mg/kg/injection, schedule: Q01DX009 (ip), vehicle: saline): 101 % of control and 102 % of control
T/C (dose: 40.0 mg/kg/injection, schedule: Q01DX009 (ip), vehicle: saline): 104 % of control and 108 % of control
T/C (dose: 80.0 mg/kg/injection, schedule: Q01DX009 (ip), vehicle: saline): 102 % of control and 109 % of control
T/C (dose: 160.0 mg/kg/injection, schedule: Q01DX009 (ip), vehicle: saline): 101 % of control and 104 % of control
T/C (dose: 320.0 mg/kg/injection, schedule: Q01DX009 (ip), vehicle: saline): 102 % of control and 106 % of control

Cc1ccc(SCC(=O)NCc2cccs2)cc1
T/C [10]: 103 % of control
T/C [11]: 97 % of control
T/C [12]: 93 % of control

c1ccc(C2CN3CCSC3=N2)cc1 (stereo not drawn)
T/C (dose: 3.13 mg/kg/injection, schedule: Q01DX009 (ip), vehicle: saline with Tween-80): 98 % of control
T/C (dose: 3.75 mg/kg/injection, schedule: Q01DX005 (ip), vehicle: saline): 101 % of control
T/C (dose: 6.25 mg/kg/injection, schedule: Q01DX009 (ip), vehicle: saline with Tween-80): 100 % of control
T/C (dose: 7.5 mg/kg/injection, schedule: Q01DX005 (ip), vehicle: saline): 100 % of control
T/C (dose: 12.5 mg/kg/injection, schedule: Q01DX009 (ip), vehicle: saline with Tween-80): 98 % of control
T/C (dose: 15.0 mg/kg/injection, schedule: Q01DX005 (ip), vehicle: saline): 99 % of control
T/C (dose: 25.0 mg/kg/injection, schedule: Q01DX009 (ip), vehicle: saline with Tween-80): 103 % of control

COc1cccc2c1C(=O)c1c(O)c3c(c(O)c1C2=O)C[C@@](O)(C(O)CO)C[C@@H]3OC1CC(NC(=O)C(F)(F)F)C(O)C(C)O1 (stereo partly drawn)
T/C (dose: 25.0 mg/kg/injection, schedule: Q01DX009 (ip), vehicle: other): 151 % of control and 152 % of control

COc1ccn(C2OC(COC(=O)c3ccccc3)C(OC(=O)c3ccccc3)C2OC(=O)c2ccccc2)c(=O)n1 (stereo not drawn)
T/C [13]: 97 % of control
T/C [1]: 88 % of control and 93 % of control
T/C [2]: 90 % of control
T/C [3]: 92 % of control

Cc1cccc(C)c1-n1c(C)nc2[nH]cc(C)c2c1=N
T/C [14]: 99 % of control
T/C [13]: 97 % of control
T/C [1]: 100 % of control and 97 % of control

CSC(/C=N\O)=N/O
T/C [4]: 88 % of control
T/C [5]: 106 % of control
T/C [6]: 109 % of control

c1ccc(CSCCOCCOCCSCc2ccccn2)nc1
T/C [1]: 101 % of control
T/C [2]: 108 % of control
T/C [3]: 104 % of control

CC1=NN(C)C(=O)C1
T/C (dose: 50.0 mg/kg/injection, schedule: Q04DX003 (ip), vehicle: saline): 102 % of control
T/C (dose: 100.0 mg/kg/injection, schedule: Q04DX003 (ip), vehicle: saline): 101 % of control
T/C [15]: 104 % of control
T/C [16]: 111 % of control

Cc1cc(C(=O)NC(C)c2ccc(S(=O)(=O)NC(=O)NC3CCCCC3)cc2)no1 (stereo not drawn)
T/C (dose: 50.0 mg/kg/injection, schedule: Q04DX002 (ip), vehicle: Klucel (hydroxypropylcellulose) (HPC)): 99 % of control
T/C (dose: 100.0 mg/kg/injection, schedule: Q04DX002 (ip), vehicle: Klucel (hydroxypropylcellulose) (HPC)): 100 % of control
T/C (dose: 200.0 mg/kg/injection, schedule: Q04DX002 (ip), vehicle: Klucel (hydroxypropylcellulose) (HPC)): 97 % of control

CC(=O)NS(=O)(=O)c1ccc(N=Cc2c3ccccc3nc3cc(Cl)ccc23)cc1
T/C [17]: 101 % of control
T/C [18]: 93 % of control
T/C [19]: 101 % of control

NC(CCSCNc1ncnc2c1ncn2C1OC(CO)C(O)C1O)C(=O)O (stereo not drawn)
T/C [17]: 97 % of control
T/C [18]: 93 % of control
T/C [19]: 93 % of control

Clc1ccc(-c2n[nH]c3c2Cc2ccccc2-3)cc1Cl
T/C [1]: 97 % of control
T/C [2]: 91 % of control
T/C [3]: 98 % of control

CC1(C)CCO/C(=C\C(=O)N2Cc3cc4ccccc4nc3C2)N1
T/C (dose: 18.75 mg/kg/injection, schedule: Q01DX001 (ip), vehicle: saline sonified): 95 % of control
T/C (dose: 37.5 mg/kg/injection, schedule: Q01DX001 (ip), vehicle: saline sonified): 95 % of control
T/C (dose: 75.0 mg/kg/injection, schedule: Q01DX001 (ip), vehicle: saline sonified): 100 % of control

CCOC(=O)CCN(CC)CC
T/C (dose: 88.0 mg/kg/injection, schedule: Q04DX003 (ip), vehicle: saline): 100 % of control
T/C (dose: 100.0 mg/kg/injection, schedule: Q01DX009 (ip), vehicle: saline): 116 % of control
T/C (dose: 132.0 mg/kg/injection, schedule: Q04DX003 (ip), vehicle: saline): 95 % of control
T/C (dose: 200.0 mg/kg/injection, schedule: Q01DX009 (ip), vehicle: saline): 111 % of control
T/C [15]: 109 % of control
T/C (dose: 300.0 mg/kg/injection, schedule: Q04DX003 (ip), vehicle: saline): 109 % of control
T/C (dose: 400.0 mg/kg/injection, schedule: Q01DX009 (ip), vehicle: saline): 111 % of control
T/C [16]: 100 % of control

CCOC(=O)CC(C)P(c1ccccc1)C(C)CC(=O)OCC (stereo not drawn)
T/C [10]: 105 % of control
T/C [20]: 98 % of control
T/C [11]: 99 % of control
T/C [21]: 101 % of control
T/C [12]: 102 % of control
T/C [22]: 105 % of control

CCCCCCCCCCNCCSSc1ccccc1
T/C (dose: 6.25 mg/kg/injection, schedule: Q01DX005 (ip), vehicle: Klucel (hydroxypropylcellulose) (HPC)): 95 % of control
T/C [14]: 100 % of control
T/C [13]: 102 % of control

COc1cc(C(=O)N/N=C/c2cccc3ccccc23)ccc1O
T/C [7]: 86 % of control
T/C [8]: 90 % of control
T/C [9]: 90 % of control

CCC(=O)OC(C)COc1ccc(C(C)(C)C)cc1 (stereo not drawn)
T/C [8]: 107 % of control
T/C [9]: 114 % of control
T/C (dose: 400.0 mg/kg/injection, schedule: Q01DX009 (ip), vehicle: saline with Tween-80): 117 % of control

O=C(Nc1cccc2c(O)c(N=Nc3ccc(S(=O)(=O)Nc4nccs4)cc3)cc(N=Nc3ccc(S(=O)(=O)Nc4nccs4)cc3)c12)C(Cl)Cl
T/C [7]: 102 % of control
T/C [8]: 106 % of control
T/C [9]: 98 % of control

COc1ccc(C2(O)c3ccccc3C(=O)c3ccccc32)cc1
T/C [1]: 95 % of control
T/C [2]: 96 % of control
T/C [3]: 107 % of control

O=C(CCSCCC(=O)N/N=C(\CO)C(O)C(O)C(O)CO)N/N=C(/CO)C(O)C(O)C(O)CO (stereo not drawn)
T/C (dose: 50.0 mg/kg/injection, schedule: Q01DX005 (ip), vehicle: suspension in saline): 99 % of control
T/C (dose: 100.0 mg/kg/injection, schedule: Q01DX005 (ip), vehicle: suspension in saline): 104 % of control
T/C (dose: 200.0 mg/kg/injection, schedule: Q01DX005 (ip), vehicle: suspension in saline): 97 % of control

NNC(=O)c1nc2ccccc2s1
T/C (dose: 37.5 mg/kg/injection, schedule: Q04DX003 (ip), vehicle: saline with Tween-80): 100 % of control
T/C (dose: 75.0 mg/kg/injection, schedule: Q04DX003 (ip), vehicle: saline with Tween-80): 100 % of control
T/C (dose: 150.0 mg/kg/injection, schedule: Q04DX003 (ip), vehicle: saline with Tween-80): 95 % of control

COc1cccc2cc(-n3nnc4ccccc43)c(=O)oc12
T/C (dose: 30.0 mg/kg/injection, schedule: Q01DX005 (ip), vehicle: saline with Tween-80): 94 % of control
T/C [20]: 86 % of control and 91 % of control and 94 % of control
T/C [21]: 94 % of control
T/C [22]: 86 % of control and 87 % of control
